Patent publication US20060134100A1, “Dc-sign blockers and their use for preventing or treating viral infections” (priority 2002, published 2006)

System: DEN-1 virus strain FGA/NA d1d
Format: cell-based
Settings: THP/DC-SIGN cells, m.o.i. 5 AP61FFU/cell
Description: Prior to infection, THP-1/DC/SIGN cells were incubated with either Mab 9D12 (dilution 1:50), Mab BD12.5 (20 μg/ml), Mab 1B10.2.6 (20 μg/ml), EDTA (5 mM), mannan (20 μg/ml), or mock-treated (control). Treated cells were infected with DEN-1 virus strain FGA/NA dld (5 AP61FFU/cell) in the presence of reagents for 2 hrs. Viral antigens were detected by indirect immunofluorescence as described in the legend of FIG. 1. The percentages of infected cells 48 h post-infection are indicated. Values represent the mean of triplicate assays±SD.
Cells were washed once with RPMI 1640, incubated with highly purified virus in RPMI 1640 supplemented with 0.2% bovine serum albumine (BSA, pH 7.5) (Sigma) for 2 hrs at 37° C. and placed into fresh media supplemented with 2% FCS, 2 mM L-glutamine and antibiotics Peni/Strepto at 37° C. for 40 hrs.
Adherent cells were incubated either with EDTA (5 mM), mannan (20 μg/ml), anti-DC-SIGN Mab 1B10.2.6 (20 μg/mi), anti-LMCV Mab 12.5 (isotype control, 20 μg/ml), or DEN E-specific Mab 9D12 (dilution 1:50) in RPMI 1640 supplemented with 0.2% BSA for 20 min at room temperature before binding the virus for 2 hrs. Two hours after infection, cells were washed with RPMI 1640 and incubated with RMPI 1640 2% FCS for 40 hrs. […]

Compound	infectivity of DEN-1 virus after preincubation of cells (EDTA 5 mM)	reduction of FGA/NA d1d infectivity (mannan 20 μg/ml) [%]
O=C(O)CN(CCN(CC(=O)O)CC(=O)O)CC(=O)O [EDTA]	essentially abolished	–
mannan	–	75
